Data on ten compounds can be found in PMC4777217, “Modelling the Tox21 10 K chemical profiles for in vivo toxicity prediction and mechanism characterization” (Nature Communications, 2016).

Assay [1] concerns ATAD5. Nature of the assay: ATAD5-luc genotoxicity assay (agonist mode). The note with it: Homo sapiens, positive control titration on every plate, mean, n=408. It counts as cell-based.
Description: (§1) All cell-based assays were multiplexed with a cell viability assay in the same assay well. Although bla-based assays were multiplexed with a luminescence-based cell viability assay (CellTiter-Glo viability assay, Promega), luc-based assays were multiplexed with a fluorescence-based cell viability assay (Cell Titer-Fluor viability assay, Promega). […] A number of stress response pathway assays, including ATAD5-luc[33], a genotoxicity assay, p53-bla, antioxidant responsive element (ARE-bla)[34] and heat-shock factor response element (HSE-bla) assays, were screened in agonist mode.
(§2) In primary screening, all compounds were tested as three independent runs, with each of the three instances of a compound sample residing in a different location on a different compound plate across replicates. […] Analysis of compound concentration–response data was performed as previously described[5]. […] Compound reproducibility was assessed by calculating the reproducibility of the curve ranks of each compound generated from the triplicate runs[9].
In assay [2] the test system is heat-shock factor response element. Nature of the assay: HSE-bla qHTS assay (agonist mode). In kind it is cell-based, human. The note with it: positive control titration on every plate, mean, n=408.
Description: as §1, §2
The test system of assay [3] is Mitochondria toxicity. Conditions: read-out: Control AC50, positive control titration on every plate, mean, n=408.
Assay [4] has as its target T1, peroxisome proliferator-activated receptor gamma (Homo sapiens, UniProt P37231).
T1 sequence (P37231 238-505 limits assumed): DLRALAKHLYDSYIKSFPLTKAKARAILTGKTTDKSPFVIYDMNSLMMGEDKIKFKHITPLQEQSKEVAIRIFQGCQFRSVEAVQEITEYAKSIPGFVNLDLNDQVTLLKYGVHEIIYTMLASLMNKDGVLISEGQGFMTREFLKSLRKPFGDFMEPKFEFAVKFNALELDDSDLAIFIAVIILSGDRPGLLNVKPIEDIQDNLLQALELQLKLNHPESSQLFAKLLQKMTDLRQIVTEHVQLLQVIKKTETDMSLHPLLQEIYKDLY
Nature of the assay: PPAR-gamma-bla antagonist mode qHTS assay. It counts as cell-based. Conditions: positive control titration on every plate, mean, n=408. A general note: Quantitative high-throughput screening tests each substance at several concentrations.
Description: (§3) The assays were run in different modes (agonist versus antagonist) and/or formats (full length versus partial receptor) as detailed below, totaling 30 assays. […] All cell-based assays were multiplexed with a cell viability assay in the same assay well. Although bla-based assays were multiplexed with a luminescence-based cell viability assay (CellTiter-Glo viability assay, Promega), luc-based assays were multiplexed with a fluorescence-based cell viability assay (Cell Titer-Fluor viability assay, Promega). […]
(§4) In primary screening, all compounds were tested as three independent runs, with each of the three instances of a compound sample residing in a different location on a different compound plate across replicates. […] Briefly, raw plate reads for each titration point were first normalized relative to the positive control compound (agonist mode: 100%; antagonist mode: 0%) and dimethylsulphoxide (DMSO)-only wells (agonist mode: 0%; antagonist mode: -100%) as follows: % Activity=((Vcompound – VDMSO)/(Vpos – VDMSO)) × 100, where Vcompound denotes the compound well values, Vpos denotes the median value of the positive control wells and VDMSO denotes the median values of the DMSO-only wells, and then corrected by applying an in-house pattern correction algorithm using compound-free control plates (that is,, DMSO-only plates) at the beginning and end of the compound plate stack. […]

Assay [5] has as its target T2, peroxisome proliferator-activated receptor delta (Homo sapiens, UniProt Q03181).
T2 sequence (Q03181 211-441 limits assumed): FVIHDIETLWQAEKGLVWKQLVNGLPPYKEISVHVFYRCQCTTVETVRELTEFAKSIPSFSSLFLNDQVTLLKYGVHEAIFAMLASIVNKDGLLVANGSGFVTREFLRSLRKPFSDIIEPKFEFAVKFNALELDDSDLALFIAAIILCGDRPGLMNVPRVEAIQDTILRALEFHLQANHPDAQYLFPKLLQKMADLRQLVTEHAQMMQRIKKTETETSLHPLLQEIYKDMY
The experiment in a line: PPAR-delta-bla agonist mode qHTS assay. It counts as cell-based. The note with it: positive control titration on every plate, mean, n=408.
Description: as §3, §4

For assay [6], the target named is T2, peroxisome proliferator-activated receptor delta. The experiment in a line: PPAR-delta-bla antagonist mode qHTS assay. In kind it is cell-based. The note with it: positive control titration on every plate, mean, n=408.
Description: as §3, §4
Assay [7] relates to p53. The experiment in a line: P53-bla qHTS assay (agonist mode). It counts as cell-based. Conditions: Homo sapiens, positive control titration on every plate, mean, n=408.
Description: as §3, §4
Assay [8] has as its target aryl hydrocarbon receptor (Homo sapiens, UniProt P35869). Nature of the assay: AhR-luc qHTS assay. Conditions: positive control titration on every plate, mean, n=408. It counts as cell-based.
Description: as §1, §2
In assay [9] the test system is DT40 Rad54/Ku70 cells. Nature of the assay: DT40 Rad54/Ku70 mutant cell viability assay. It counts as cell-based, chicken. Conditions: positive control titration on every plate, mean, n=408.
In assay [10] the test system is DT40 WT cells. The experiment in a line: DT40 WT cell viability assay. It counts as cell-based, chicken. The note with it: positive control titration on every plate, mean, n=408.
Assay [11] deals with DT40 Rev3 cells. Nature of the assay: DT40 Rev3 cell viability assay. It counts as cell-based, chicken. Conditions: positive control titration on every plate, mean, n=408.
Assay [12] relates to antioxidant responsive element. Nature of the assay: ARE-bla qHTS assay (agonist mode). It counts as cell-based. Conditions: Homo sapiens, positive control titration on every plate, mean, n=408.
Description: as §3, §4

Each structure is given as a SMILES string.

Chain of aryl hydrocarbon receptor (P35869 11-848): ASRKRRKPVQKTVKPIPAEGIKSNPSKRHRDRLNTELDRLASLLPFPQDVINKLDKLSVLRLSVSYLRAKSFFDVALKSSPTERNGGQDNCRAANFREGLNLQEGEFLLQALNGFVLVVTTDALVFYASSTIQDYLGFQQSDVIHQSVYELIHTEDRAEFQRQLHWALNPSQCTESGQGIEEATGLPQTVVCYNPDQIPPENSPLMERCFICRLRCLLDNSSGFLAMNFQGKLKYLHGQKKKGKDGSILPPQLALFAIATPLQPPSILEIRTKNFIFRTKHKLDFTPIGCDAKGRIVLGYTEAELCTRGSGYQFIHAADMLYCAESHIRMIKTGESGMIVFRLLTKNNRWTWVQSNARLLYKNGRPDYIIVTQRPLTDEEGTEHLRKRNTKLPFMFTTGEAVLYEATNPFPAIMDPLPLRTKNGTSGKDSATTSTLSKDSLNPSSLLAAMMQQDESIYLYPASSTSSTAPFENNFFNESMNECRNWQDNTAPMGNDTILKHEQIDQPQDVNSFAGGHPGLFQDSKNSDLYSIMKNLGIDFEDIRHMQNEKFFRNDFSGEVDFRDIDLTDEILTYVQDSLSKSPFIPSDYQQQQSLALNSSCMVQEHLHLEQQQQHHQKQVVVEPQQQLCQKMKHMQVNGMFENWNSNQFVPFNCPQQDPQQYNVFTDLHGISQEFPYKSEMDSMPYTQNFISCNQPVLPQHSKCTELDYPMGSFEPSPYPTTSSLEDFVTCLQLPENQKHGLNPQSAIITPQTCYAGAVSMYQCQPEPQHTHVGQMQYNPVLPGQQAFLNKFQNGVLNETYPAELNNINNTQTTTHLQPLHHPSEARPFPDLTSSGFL

For the compound `O=c1[nH]c(=O)n([C@@H]2O[C@H](CO)[C@@H](O)[C@H]2O)cc1F` [5-Fluorouridine], in [1], the AC50 is 2120 nM.
In the case of `C=CCNC1=C2C[C@@H](C)C[C@H](OC)[C@H](O)[C@@H](C)/C=C(\C)[C@H](OC(N)=O)[C@@H](OC)/C=C\C=C(/C)C(=O)NC(=CC1=O)C2=O` [17-AAG], the AC50 in assay [2] stood at 45.3 nM.
With `N#CC(C#N)=NNc1ccc(OC(F)(F)F)cc1` [FCCP], the AC50 in assay [3] worked out at 96.2 nM.
For `O=C(Nc1ccccc1)c1cc([N+](=O)[O-])ccc1Cl` [GW9662], in [4], the AC50 turned out to be 2.47 nM.
For the compound `CCCc1c(OCCCOc2ccc(OCC(=O)O)cc2)ccc(C(C)=O)c1O` [L-165,041], the AC50 in assay [5] came out at 36.4 nM.
In assay [6], `CC(C)c1ccc2c(c1)c(SC(C)(C)C)c(CC(C)(C)C(=O)O)n2Cc1ccc(Cl)cc1` [MK886] yielded an AC50 of 38500 nM.
In assay [7], `CO[C@@]12[C@H](COC(N)=O)C3=C(C(=O)C(C)=C(N)C3=O)N1C[C@@H]1N[C@@H]12` [Mitomycin C] registered an AC50 of 1530 nM.
`COc1ccc2[nH]c([S+]([O-])Cc3ncc(C)c(OC)c3C)nc2c1` (stereo not drawn) [Omeprazole] showed an AC50 in assay [8] of 49500 nM.
Take `CCCCCCCC[N+](CCCCCCCC)(CCCCCCCC)CCCCCCCC` [Tetra-octyl ammonium bromide]: the AC50 came out at 416 nM in assay [9], 594 nM in assay [10] and 440 nM in [11].
As for `O=c1cc(-c2ccccc2)oc2ccc3ccccc3c12` [β-Naphthoflavone], in [12], the AC50 turned out to be 1950 nM.
